The record followed here is publication PMC7714071, “Interaction of amyloid beta with humanin and acetylcholinesterase is modulated by ATP” (FEBS Open Bio, 2020).

This assay has as its system AChE. Nature of the assay: ELISA, binding of biotinylated-Aβ42 to immobilised AChE. Also noted: species or system human. The text has this:
Most of the material used was purchased as we previously reported. Nitrocellulose membranes, PBS, ATP, recombinant human AChE (C1682, UniProt accession ID: C9JD78), streptavidin‐conjugated horseradish peroxidase (HRP) conjugate, Ponceau S solution, PMSF, and HS sodium salt from bovine kidney were purchased from Sigma‐Aldrich (St. Louis, MO, USA). Mouse IgG isotype control (mIgG), ultra 3,3′,5,5′‐tetramethylbenzidine (TMB)‐ELISA substrate solution, Halt Protease and Phosphatase Inhibitor Cocktail, HN polyclonal antibody (rabbit, PA1‐41610), and Nunc MaxiSorpTM 96‐well flat bottom plates were from Thermo Fisher (Waltham, MA, USA). […]
ELISAs were carried out as we previously reported. […] TBST was then used to wash the wells 4× before proceeding in one of two ways: (a) biotinylated samples were analyzed by adding 100 µL streptavidin–HRP conjugate in TBST (1 : 2500 dilution) to the samples followed by incubation for 3 h at RT on a shaker, or (b) samples without biotin were analyzed by adding 100 µL TBST containing the primary antibody as per the manufacturer's recommendation, incubating for 3 h at RT on a shaker, followed by washing the wells 4× with TBST. […] The reaction was stopped with 100 µL 2 M H2SO4 after incubating at RT for 0.5–15 min, resulting in a yellow color change, measured by absorbance at 450 nm. […] Statistical analysis was determined by the […]
(An ELISA detects its analyte on a solid surface through an enzyme-linked reagent.)

As to `Nc1ncnc2c1ncn2[C@@H]1O[C@H](COP(=O)(O)OP(=O)(O)OP(=O)(O)O)[C@@H](O)[C@H]1O` [ATP, Adenosine triphosphate], where the note is “200 μM ATP, 30 min preincubation RT, pH 7.5, 10 mM MgCl2, three experiments in triplicate, Fig. 3B”, the “effect of ATP on affinity of AChE to Aβ42” value is “reduced the affinity”.

As for heparan sulfate [HS], the “effect of HS on binding of Aβ42 to AChE” value (AChE 10 nM on wells, biotinylated-Aβ 1 μM, increasing HS, three independent assays, Fig. 2C) was “No effects”.
